Measured values taken from patent US11197826B2, “Oil-in-water emulsions including retinoic acid” (NOVARTIS AG, priority 2015, dated 2021).

How the values were obtained:
[1] = cited from earlier work
[2] = Mucosal antibody responses after MF59-adjuvanted immunisation; type: in vivo, mice
Protocol: To assess antibody responses mice were injected with 3 doses of either ovalbumin or H56 (a […] antigen) on days 0, 21, and 42, adjuvanted with MF59. The day before and after each immunization one group of mice were given retinoic acid whereas control mice received a plain vehicle instead. Serum IgG and vaginal wash IgA antibody responses were assessed at day 56. IgA-secreting cells were also measured in the bone marrow.

[3] = test system: CCR9 on CD4+ T-cells expressing the DO-11.10 T-cell receptor; experiment: Adoptive T-cell transfer with fingolimod: CCR9 expression and proliferation of DO-11.10 CD4+ T-cells in draining lymph nodes; type: in vivo, mice; settings: FACS, MF59-adjuvanted ovalbumin plus retinoic acid versus MF59 plus plain vehicle
Protocol: Reference describes experimental protocols for studying the homing of T-cells in mice who receive retinoic acid. In brief, T-cells specific for test antigens (in the present case, ovalbumin) are adoptively transferred into mice and their behaviour in response to specific treatments is studied. This general experimental procedure was used to assess the effect of MF59 and retinoic acid on CCR9 expression in T-cells, and on their in vivo migration.
Mice were injected intravenously with 2×10^6 CD4^+ T-cells which react to ovalbumin peptides (DO-11.10 cells). These cells were labelled with CFSE before being administered. At around the same time they were given either retinoic acid or a plain vehicle. The next day they received MF59-adjuvanted ovalbumin, and the next day they again received RA or plain vehicle, plus fingolimod (which blocks the egress of lymphocytes from lymph nodes). A few days later their draining lymph nodes were drained and CD4^+ T-cells expressing the DO-11.10 T-cell receptor were tested for CCR9 expression by FACS. The CFSE label was used to trace cell proliferation.

Question: Which solubility in oil [1] does the source give for `CC1=C(/C=C/C(C)=C/C=C/C(C)=C/C(=O)O)C(C)(C)CCC1` [retinoic acid] here?
Answer: soluble

Question: And the solubility in water [1]?
Answer: sparingly soluble

Question: What about the “proportion of IgA-secreting cells, fold higher, H56” value ([2]; bone marrow, H56 adjuvanted with MF59, retinoic acid versus plain vehicle) of the same compound?
Answer: around 12 ×

Question: What about the “proportion of IgA-secreting cells, fold higher, ovalbumin” value ([2]; bone marrow, ovalbumin adjuvanted with MF59, retinoic acid versus plain vehicle) of the same compound?
Answer: about 7 ×

Question: What about the “antigen-specific IgA titres in vaginal washes” value ([2]; day 56, 3 MF59-adjuvanted doses, plain vehicle essentially zero) of the same compound?
Answer: about 1250

Question: And the “number of CCR9-positive cells, fold higher” value [3]?
Answer: about 5 ×
